Like-named read-outs stand apart in the source and are kept apart here.
Experiments:
[1] = system: histone 2A phosphorylation (kinase activity of Bub1); assay: H2A Formation-Assay (cell-based mechanistic assay, co-treatment with Nocodazole); conditions: 16 h, read-out: Biological Assay 4.1: H2A Formation IC50
Procedure: Cell-Based Mechanistic Assay: Changes of Phosphorylation Status of Histone 2A by Inhibition of Kinase Activity of Bub1
This assay determines the suppression of histone 2A phosphorylation by a Bub1 kinase inhibitor during co-treatment with Nocodazole. 25000 cells (cells were ordered from ATCC) were seeded in 96well plate for 5 h at 37° C. Cells were treated with Nocodazole (1 μg/ml) and varying concentrations (between 3 nM and 10 μM) of test compounds for 16 h. Cells were fixed (20 min, Fixing solution R&D), washed three times with PBS and blocked with Odyssey blocking buffer before incubating with the primary antibody against phosphorylated H2A (5 μg/ml ABIN482721) overnight at 2-8° C. After washing, secondary IRDye-labeled antibody mix with cell stains was added for 1 h and washed again with PBS. Plates were scanned with LICor Odyssey Infrared Imager CLx at 800 nm for P-H2A and at 700 nm for cell stains Draq5/Sapphire. The quotient of 800 nm and 700 nm for Nocodazole only treated cells was set as 100% and the quotient of 800 nm and 700 nm of untreated cells was set as 0%. […] The IC50 values were determined by means of a 4 parameter fit.

[2] = molecular target: T1, (recombinant) catalytic domain of human Bub1 (amino acids 704-1085) (Homo sapiens, UniProt O43683); assay: Bub1 kinase assay (TR-FRET); format: biochemical
T1 construct: catalytic domain of human Bub1 (amino acids 704-1085); 6xHis (N); made in house; host or cells: Hi5 insect cells
T1 sequence (O43683 704-1085): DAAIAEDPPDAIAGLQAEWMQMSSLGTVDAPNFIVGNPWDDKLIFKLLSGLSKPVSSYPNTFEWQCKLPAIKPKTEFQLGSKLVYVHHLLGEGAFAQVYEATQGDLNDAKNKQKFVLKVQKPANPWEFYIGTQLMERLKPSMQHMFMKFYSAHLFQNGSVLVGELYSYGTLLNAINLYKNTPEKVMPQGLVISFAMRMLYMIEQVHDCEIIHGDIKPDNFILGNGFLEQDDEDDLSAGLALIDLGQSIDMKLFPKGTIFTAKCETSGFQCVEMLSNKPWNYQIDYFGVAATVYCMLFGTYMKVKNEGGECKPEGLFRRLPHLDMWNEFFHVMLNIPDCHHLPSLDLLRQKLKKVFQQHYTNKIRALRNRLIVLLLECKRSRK

[3] = system: pre-induced phospho-histone 2A (kinase activity of Bub1); assay: H2A Abrogation-Assay (cell-based mechanistic assay, pre-treatment with Nocodazole); conditions: Nocodazole 16 h, then test compound 1 h; read-out: Biological Assay 4:2: H2A Abrogation IC50
Text: Biological Assay 4.2: Abrogation-Assay
This assay measures the inhibition of histone 2A phosphorylation, which was induced by pre-treatment of the cells with Nocodazole, by a Bub1 kinase inhibitor.

[4] = system: HeLa human cervical tumor cells; assay: Proliferation assay (HeLa cell line); format: cell-based; conditions: 96 h, 4 days incubation, crystal violet, read-out: Biological Assay 2: Proliferation assay (HeLa cell line) median IC50
Text: Human tumour cells were originally obtained from the American Type Culture Collection (ATCC), the Deutsche Sammlung von Mikroorganismen und Zellkulturen (DSMZ, German Collection of Microorganisms and Cell Cultures), or Epo GmbH Berlin.

[5] = system: HeLa human cervical tumor cells; assay: Proliferation Assay (HeLa + Paclitaxel); format: cell-based; conditions: 3 nM paclitaxel, test substance 92 hours; read-out: Biological Assay 3: Proliferation Assay (HeLa + Paclitaxel) IC50
Text: Proliferation Assay (HeLa+Paclitaxel):

[6] = ATP 10 μM, 60 min reaction, pH 7.5, read-out: Biological Assay 1: Bub1 kinase assay median IC50

IC50 [1] [nM] | IC50 [2, 6] [nM] | IC50 [3] [nM] | IC50 [4] [nM] | IC50 [5] [nM] | IC50 ([2]; probe of the competition assay, read-out: inhibits the kinase activity of Bub1, IC50) [nM] | Compound
– | 21 | – | – | – | 20.8 | CCOc1cc(F)c(Cn2nc(-c3ncc(OCCOCCNC(=S)Nc4ccc(-c5c6ccc(=O)cc-6oc6cc(O)ccc56)c(C(=O)O)c4)c(Nc4ccncc4)n3)c3ccccc32)c(F)c1 [Example 5-5-1, 5-[((2-[2-((2-[1-(4-ethoxy-2,6-difluorobenzyl)-1H-indazol-3-yl]-4-(pyridin-4-ylamino)pyrimidin-5-yl)oxy)ethoxy]ethyl)carbamothioyl)amino]-2-(6-hydroxy-3-oxo-3H-xanthen-9-yl)benzoic acid, reference compound]
– | 15 | – | 2320 | 300 | – | Cc1cc(Nc2nc(-c3nn(Cc4c(F)cc(OCC5CC5)cc4F)c4ccccc34)ncc2OCCCO)c(C)cn1 [Example 2-1-23, 3-[(2-{1-[4-(cyclopropylmethoxy)-2,6-difluorobenzyl]-1H-indazol-3-yl}-4-[(2,5-dimethylpyridin-4-yl)amino]pyrimidin-5-yl)oxy]propan-1-ol]
37 | 8 | 4.6 | 3000 | 140 | – | CCOc1cc(F)c(Cn2nc(-c3ncc(OCCCO)c(Nc4ccnc(NC(=O)C5CC5)c4)n3)c3ccccc32)c(F)c1 [Example 2-1-15, N-[4-({2-[1-(4-Ethoxy-2,6-difluorobenzyl)-1H-indazol-3-yl]-5-(3-hydroxypropoxy)pyrimidin-4-yl}amino)pyridin-2-yl]cyclopropancarboxamide]
– | 16 | – | – | – | – | CCOc1cc(F)c(Cn2nc(-c3ncc(OCCCO)c(Nc4cc(C)ncc4F)n3)c3ccccc32)c(F)c1 [Example 2-1-16, 3-({2-[1-(4-Ethoxy-2,6-difluorobenzyl)-1H-indazol-3-yl]-4-[(5-fluor-2-methylpyridin-4-yl)amino]pyrimidin-5-yl}oxy)propan-1-ol]
– | 5.7 | – | 1390 | 180 | – | CCOc1cc(F)c(Cn2nc(-c3ncc(OCCCO)c(Nc4ccncc4OCC(F)(F)F)n3)c3ccccc32)c(F)c1 [Example 2-1-22, 3-[(2-[1-(4-ethoxy-2,6-difluorobenzyl)-1H-indazol-3-yl]-4-{[3-(2,2,2-trifluoroethoxy)pyridin-4-yl]amino}pyrimidin-5-yl)oxy]propan-1-ol]
– | 19 | – | 1360 | 200 | – | CC(=O)Nc1cc(Nc2nc(-c3nn(Cc4c(F)cc(OCC(F)(F)F)cc4F)c4ccccc34)ncc2OCCCO)ccn1 [Example 2-1-25, N-(4-{[2-{1-[2,6-difluoro-4-(2,2,2-trifluoroethoxy)benzyl]-1H-indazol-3-yl}-5-(3-hydroxypropoxy)pyrimidin-4-yl]amino}pyridin-2-yl)acetamide]
14 | 14 | 38 | 3790 | 64 | – | OCCCOc1cnc(-c2nn(Cc3c(F)cc(OCC(F)F)cc3F)c3ccccc23)nc1Nc1ccncc1Cl [Example 2-1-26, 3-[(4-[(3-chloropyridin-4-yl)amino]-2-{1-[4-(2,2-difluoroethoxy)-2,6-difluorobenzyl]-1H-indazol-3-yl}pyrimidin-5-yl)oxy]propan-1-ol]
1.7 | 9.2 | 3.9 | > 10000 | 200 | – | CCOc1cc(F)c(Cn2nc(-c3ncc(OCCCO)c(Nc4ccnc(NC(C)=O)c4C)n3)c3ccccc32)c(F)c1 [Example 2-1-17, N-[4-({2-[1-(4-ethoxy-2,6-difluorobenzyl)-1H-indazol-3-yl]-5-(3-hydroxypropoxy)pyrimidin-4-yl}amino)-3-methylpyridin-2-yl]acetamide]
– | 4 | – | – | – | – | COCCOc1cc(F)c(Cn2nc(-c3ncc(OCCCO)c(Nc4ccncn4)n3)c3ccccc32)c(F)c1 [Example 2-1-27, 3{[2-{1-[2,6-difluoro-4-(2-methoxyethoxy)benzyl]-1H-indazol-3-yl}-4-(pyrimidin-4-ylamino)pyrimidin-5-yl]oxy}propan-1-ol]

The remaining lines, values behind:

Compound | IC50 [1] [nM] | IC50 [2, 6] [nM] | IC50 [3] [nM] | IC50 [4] [nM] | IC50 [5] [nM] | IC50 ([2]; probe of the competition assay, read-out: inhibits the kinase activity of Bub1, IC50) [nM]
OCCCOc1cnc(-c2nn(Cc3c(F)cc(OCC4CC4)cc3F)c3ccccc23)nc1Nc1ccncc1Cl [Example 2-1-13, 3-[(4-[(3-chloropyridin-4-yl)amino]-2-{1-[4-(cyclopropylmethoxy)-2,6-difluorobenzyl]-1H-indazol-3-yl}pyrimidin-5-yl)oxy]propan-1-ol] | 360 | 11 | 64 | 3900 | 180 | –
CCOc1cc(F)c(Cn2nc(-c3ncc(OCCCO)c(Nc4cc(C)ncc4C)n3)c3ccccc32)c(F)c1 [Example 2-1-11, 3-{[4-[(2,5-dimethylpyridin-4-yl)amino]-2-[1-(4-ethoxy-2,6-difluorobenzyl)-1H-indazol-3-yl]pyrimidin-5-yl}oxy)propan-1-ol] | 26 | 21 | 17 | 3200 | 260 | –
CCOc1cc(F)c(Cn2nc(-c3ncc(OCCCO)c(Nc4cc(NC(C)=O)ncc4C)n3)c3ccccc32)c(F)c1 [Example 2-1-12, N-[4-({2-[1-(4-ethoxy-2,6-difluorobenzyl)-1H-indazol-3-yl]-5-(3-hydroxypropoxy)pyrimidin-4-yl}amino)-5-methylpyridin-2-yl]acetamide] | – | 35 | – | – | – | –
CCOc1cc(F)c(Cn2nc(-c3ncc(OCCCO)c(Nc4ccnc(F)c4)n3)c3ccccc32)c(F)c1 [Example 2-1-10, 3-({2-[1-(4-ethoxy-2,6-difluorobenzyl)-1H-indazol-3-yl]-4-[(2-fluoropyridin-4-yl)amino]pyrimidin-5-yl}oxy)propan-1-ol] | 44 | 15 | 23 | 9000 | 1400 | –
CCOc1cc(F)c(Cn2nc(-c3ncc(OCCCO)c(Nc4ccnc(C)n4)n3)c3ccccc32)c(F)c1 [Example 2-1-7, 3-({2-[1-(4-ethoxy-2,6-difluorobenzyl)-1H-indazol-3-yl]-4-[(2-methylpyrimidin-4-yl)amino]pyrimidin-5-yl}oxy)propan-1-ol] | 87 | 7 | 48 | > 10000 | 190 | –
CCOc1cc(F)c(Cn2nc(-c3ncc(OCCCO)c(Nc4ccnc(C)c4)n3)c3ccccc32)c(F)c1 [Example 2-1-4, 3-({2-[1-(4-ethoxy-2,6-difluorobenzyl)-1H-indazol-3-yl]-4-[(2-methylpyridin-4-yl)amino]pyrimidin-5-yl}oxy)propan-1-ol] | 8.4 | 12 | 80 | 3000 | 100 | –
CCOc1cc(F)c(Cn2nc(-c3ncc(OCCO)c(Nc4ccncc4)n3)c3ccccc32)c(F)c1 [Example 5-6-1, 2-({2-[1-(4-ethoxy-2,6-difluorobenzyl)-1H-indazol-3-yl]-4-(pyridin-4-ylamino)pyrimidin-5-yl}oxy)ethanol, reference compound] | 1100 | – | – | – | 1400 | –
CCOc1cc(F)c(Cn2nc(-c3ncc(OCCCO)c(Nc4ccncc4C)n3)c3ccccc32)c(F)c1 [Example 2-1-2, 3-({2-[1-(4-ethoxy-2,6-difluorobenzyl)-1H-indazol-3-yl]-4-[(3-methylpyridin-4-yl)amino]pyrimidin-5-yl}oxy)propan-1-ol] | 31 | 10 | 17 | 3700 | – | –

From patent US20170305882A1, “BENZYL SUBSTITUTED INDAZOLES AS BUB1 KINASE INHIBITORS” (Bayer Pharma Aktiengesellschaft, priority 2014, published 2017)
